Laboratory results from patent US20250177366A1, “COMPOSITIONS AND METHODS FOR ALLEVIATING PAIN AND REDUCING ADVERSIVENESS OF STIMULI” (UNIVERSITY OF WASHINGTON, priority 2021, published 2025).

Columns and labels:
larval zebrafish [1] = test: Sensitized thermal aversion assay (28.5° vs 31.5° C. after AITC), small molecule screen; type: in vivo, Zebrafish (Danio rerio); settings: 10 min incubation then AITC 0.5 μM
Excerpt: The Novel Analgesic AS1 reverses the valence of normally aversive stimuli. In a previously published study, a novel high throughput temperature discrimination assay utilizing larval zebrafish that modeled acute and sensitized temperature aversion were developed (FIG. 1A) (Curtright et al., PLoS One. 2015; 10:1-18). […] Also shown is that multiple small molecule analgesics could reverse acute and/or sensitized thermal aversion while non-analgesics could not.
Using the sensitized thermal aversion assay, a small molecule library was screened in order to identify targets in pain transduction pathways and potential entry points for therapeutic intervention. The compounds were selected from Chembridge's CNS-Set (https://www.chembridge.com), which consists of small molecules selected for blood brain barrier penetration and oral bioavailability. Compounds were selected from across the library to maximize the diversity of molecules screened. Small molecules were initially pooled (8 per pool) to maximize screening efficiency. […]
Thermal preference assay. […] Locomotor behavior was recorded using a Canon high-definition video camcorder suspended at a fixed position above the choice testing plate. […]

larval zebrafish [2] = test: Chemical attraction/aversion assay with the test chemical itself as source (inherent attractiveness); type: in vivo, Zebrafish (Danio rerio)
Excerpt: To confirm that AS1 itself was not attractive, the chemical attraction/aversion assay was used. […] Since the assay was modified to accommodate the inability to dissolve SKF into agarose at high concentrations (see Materials and Methods), the inherent attractiveness of AS1 was re-tested using this new format.
Chemical attraction/aversion assays. The agarose attraction/aversion assay was adapted from previously described experiments (Jordi et al., Sci. Adv. 2018; 4:1-15). For the AITC aversion assay, AITC and DMSO were added to molten 0.8% agarose to achieve a final concentration of 100 mM AITC and 2% DMSO. For the AS1 attraction/aversion assay, AS1 and DMSO were added to 0.8% molten agar to achieve final concentrations of 50 mM and 2%, respectively. To construct the test chambers, the lids of 10×10 cm square petri dishes (insert cat #and company) were lined on four sides with either the test (chemical-containing) or plain agarose (300 μL per side) and allowed to solidify. For all experiments, 30-40 randomly selected 6 dpf zebrafish were caught with a 10 mL pipette pump (Bel-Air Products, cat #: 13683C) equipped with a glass wide-bored Pasteur pipet (Fisher Scientific, cat #: 22-037-540) and deposited into a standard 10 cm diameter petri dish (Fisher Scientific, cat #: 07-202-031). As much E2 media as possible was carefully removed using the same pipette. For single incubation experiments, 30 mL of 1× solutions of the control or test chemical was added to each petri dish, and fish were incubated for 10 minutes at 28.5° C. For double incubation experiments, 15 mL of 1× solutions containing control (DMSO) or test chemicals was added to the larvae-containing petri dish. […] Swimming behavior was immediately recorded for 20 minutes using the same high-definition camcorder in the thermal preference assays.
For the SKF attraction/aversion assay, custom 10 cm×10 cm plates using clear resin (Formlabs, cat #: RS-F2-GPCL-04) and a Form 3+3D printer (Formlabs, cat #: PKG-F3-WSVC-BASIC) were designed. […] Swimming behavior was then recorded for 20 minutes. […]

## CC(C)c1ccc(C(=O)Nc2ccncc2)cc1 [AS1, 4-propan-2-yl-N-pyridin-4-ylbenzamide]
Larval zebrafish [1]
  sensitized thermal aversion / place preference: induced place preference for the noxious zone
Larval zebrafish [2]; 50 mM AS1 in agarose on one side of square arena vs control agarose
  inherent attractiveness of chemical infused into agarose: did not approach it in a way that was appreciably different from control agarose
Larval zebrafish [2]; 2 mL in trough of 3D-printed arena, SKF 25 μM, AS1 10 μM-1 mM
  inherent attractiveness of chemical deposited into trough: neutral or mildly aversive
